Assay results as given in patent US20070275147A1, “SYNTHETIC SWEETENER COMPOSITIONS WITH IMPROVED TEMPORAL PROFILE AND/OR FLAVOR PROFILE, METHODS FOR THEIR FORMULATION, AND USES” (THE COCA-COLA COMPANY, priority 2005, published 2007).

What was measured:
[1] = system: panel of experts in the sensory evaluation of foods and beverages; assay: Sensory evaluation of sweetness onset and sweetness linger by expert panel; type: in vivo, human; parameters: key to Sweetness Linger: 0: no sweetness linger; 1: very slight sweetness linger; 2: slight sweetness linger; 3: moderate sweetness linger; 4: moderately high sweetness linger; 5: high sweetness linger; key to Sweetness Onset: 1: quick onset; 2: moderate onset; 3: slow onset; conditions: for Sweetness Linger: rating scale 0-5, sweetness 2-3 min after water rinse, for ranges the lowest rating of all levels is reported; for Sweetness Onset: rating scale 1-3, ca. 10 mL sample tasted and expectorated, sucrose and neotame controls for calibration
Experimental: An exemplary method of sensory evaluation is provided in the following protocol, similar to that described hereinabove. In this test protocol, none of the samples were swallowed. All samples were expectorated and the mouth was rinsed with water after the tasting. In step 1, the 10% sucrose control sample was tasted by distributing ca. 10 mL of sample quickly throughout the oral cavity, wherein the maximal “Sweetness Intensity” was measured. This intensity is defined as a 10 on a 0-15 scale where 0 is defined as no perceptible sweetness and 15, the sweetness of 15% sucrose. The “Overall Quality” of the taste was also measured in the sucrose control and was defined as a 6 on a 1-9 scale. Immediately upon sensing maximal sweetness, the sample was expectorated, the mouth was rinsed with water and the rate of sweetness decay (“Sweetness Linger”) and “Sweetness Onset” were measured, where attention was focused on the sweetness 2-3 min after the water rinse. The sweetness linger was rated by a panel of experts in the sensory evaluation of foods and beverages using the following scale: 0=no sweetness linger, 1=very slight sweetness linger, 2=slight sweetness linger, 3=moderate sweetness linger, 4=moderately high sweetness linger, 5=high sweetness linger. The sweetness onset was rated by a panel of experts using the following scale: 1=quick onset, 2=moderate onset, 3 slow onset. After sample tasting was complete, a salty oyster cracker was chewed followed by a water rinse, and at least 5 minutes followed before tasting the next sample.
The “Sweetness Linger” rating for sucrose observed by this protocol was defined as 0 and the “Sweetness Onset” was defined as 1. The Sweetness Onset and Sweetness Linger of a neotame control sample were defined as 3 and 5, respectively.
Following calibration with the sucrose and neotame control samples, the experimental samples were tasted by the same protocol, always allowing sufficient time between samples to ensure re-equilibration of the sensory system. Re-tasting of control samples during the course of the experiment was allowed and encouraged.
The comparison taste test was performed between two controls and addition of sweet taste improving additive on the onset and/or sweetness linger.
In Examples A1-A7, where there are ranges provided, the beverage samples were made with 5-7 levels from the top to the bottom of the range, using a 1:1 dilution of the corresponding sweet taste improving compositions. The sweetness linger rating reported was the most sugar-like in sweetness linger (the lowest numerical value) attained of all the samples (i.e., the shortest sweetness linger).

Osmolarity of solution = type: physicochemical; conditions: sucrose at 10%
Description: Average concentrations of inorganic ions present in saliva, which are responsible for nearly all of the osmolarity of saliva, are as illustrated in Table 1 below. From the data shown, it is clear that saliva typically has an osmolarity of 70 mOsM. Sucrose at 10%, however, is 292 mOsM, more than 4-fold higher, and therefore will cause significant shrinkage of taste bud cell volume and signaling to the central nervous system (CNS). Osmolarity refers to the measure of osmoles of solute per liter of solution, wherein osmole is equal to the number of moles of osmotically active particles in an ideal solution (e.g., a mole of glucose is one osmole), whereas a mole of sodium chloride is two osmoles (one mole of sodium and one mole of chloride). Thus, in order to improve in the quality of taste of synthetic sweeteners, the osmotically active compounds or the compounds which impart osmolarity must not introduce significant off taste to the formulation.

osmolarity (Osmolarity of solution) [mOsM]	Structure (SMILES)	Sweetness Linger [1]	Sweetness Onset [1]	Sweetness Linger ([1]; listed as sugar)
	COC(=O)[C@H](Cc1ccccc1)NC(=O)[C@H](CC(=O)O)NCCC(C)(C)C [neotame]	5	3	
292	OC[C@H]1O[C@@](CO)(O[C@H]2O[C@H](CO)[C@@H](O)[C@H](O)[C@H]2O)[C@@H](O)[C@@H]1O [sucrose]	0	1	1
